Experimental data: US20100120850A1, “Quinoline Derivatives, Pharmaceutical Compositions Comprising Them, and Their Use in Treating Central Nervous System and Peripheral Diseases” (priority 2007, published 2010)

Target: T1, NK-3 receptor (Homo sapiens, UniProt P29371)
T1 construct: expressed in transfected cells
T1 sequence (P29371 1-465): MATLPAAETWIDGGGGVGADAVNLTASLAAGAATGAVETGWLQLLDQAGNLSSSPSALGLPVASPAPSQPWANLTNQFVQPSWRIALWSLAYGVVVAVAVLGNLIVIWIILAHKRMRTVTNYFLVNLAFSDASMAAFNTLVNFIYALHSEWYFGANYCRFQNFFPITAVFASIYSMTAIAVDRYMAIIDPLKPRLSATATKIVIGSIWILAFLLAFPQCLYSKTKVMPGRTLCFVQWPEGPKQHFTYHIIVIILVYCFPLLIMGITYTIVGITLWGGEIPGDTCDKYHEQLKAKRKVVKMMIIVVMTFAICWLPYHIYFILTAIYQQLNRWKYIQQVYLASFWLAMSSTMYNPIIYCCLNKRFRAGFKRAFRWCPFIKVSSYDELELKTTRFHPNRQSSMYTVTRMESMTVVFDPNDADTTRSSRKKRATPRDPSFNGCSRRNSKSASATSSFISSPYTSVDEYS
Test: Assay for NK-3 functional activity (senktide-induced calcium mobilization, FLIPR)
Type: cell-based
Conditions: compared with the other diastereomer (sulfur center) separated by chiral SFC
From the text: A human NK-3 receptor gene was cloned using methods similar to those described for other human NK receptors (Aharony et al., Mol. Pharmacol. 45:9-19, 1994; Caccese et al., Neuropeptides 33, 239-243, 1999). The DNA sequence of the cloned NK-3 receptor differed from the published sequence (Buell et al., FEBS Letts. 299, 90-95, 1992; Huang et al., Biochem. Biophys. Res. Commun 184,966-972, 1992) having a silent single T>C base change at nucleotide 1320 of the coding sequence. Since the change is silent, the cloned gene provides a primary amino acid sequence for the encoded NK-3 receptor protein identical to the published sequence. […]
Generally, NK-3 functional activity may be assessed by using calcium mobilization assays in stable NK-3r-expressing cell lines. […] Agonists may be added to the cells and fluorescence responses continuously recorded for up to 5 min. […] The action of agonists may be assessed by observing their intrinsic activity in such a system.
NK-3 receptor expressing CHO cells were maintained in growth media (Ham's F12 medium, 10% FBS, 2 mM L-glutamine, and […] Hygromycin B). […] To quantify NK-3 receptor-induced calcium mobilization, cells were first washed with assay buffer consisting of Hanks' Balanced Salt Solution, 15 mM HEPES, and 2.5 mM probenecid, pH 7.4. […] The resulting data was analyzed using XLfit software (IDBS manufacturer) to determine EC50 and IC50 values.

Compound	biological activity when tested in the assay for NK-3 functional activity
CC[C@H](NC(=O)c1c([S+](C)[O-])c(-c2ccccc2)nc2ccccc12)c1ccccc1 (single isomer, unassigned) [Example 2 first eluting compound]	substantially greater biological activity
C[S+]([O-])c1c(-c2ccccc2)nc2ccccc2c1C(=O)N[C@H](c1ccccc1)C1CC1 (single isomer, unassigned) [Example 8 second eluting compound]	substantially greater biological activity
